Assay results: patent EP4556003A1, “ANTI-OBESITY AND ANTI-DIABETIC ACTIVITY OF BROMINATED DITERPENES FROM RED ALGAE OF THE GENUS LAURENCIA AND APPLICATIONS THEREOF” (priority 2023, dated 2025)

Columns and labels:
3T3-L1 cells [1] = assay: MTT cell viability / proliferation assay; assay type: cell-based, Mouse
Procedure: The cell viability was evaluated using the MTT assay. 3T3-L1 cells were seeded at a density of 1×10^3 in 96-well plates and incubated for 24h. Compounds 1 and 2 were added in the wells at various concentrations and then incubated at 37 °C. Cells were treated with compound 1 at concentrations of 62.5, 46.875, 31.25, 15.625, 7.81 and 3.9 µM. Cells were treated with compound 2 at concentrations of 62.5, 25.0, 12.5, 6.25 and 3.125 µM. After 24, 48, and 72 h of treatment, MTT solution was added in the wells at a final concentration of 0.5 mg/mL and incubated for 4 h. Cell culture media with MTT was removed and the formazan crystals were dissolved in 100 µl/well isopropanol/HCl (0.4%) and the absorbance was measured at 600 nm using the Infinite® 200 PRO microplate plate reader (Tecan, Zurich, Switzerland).

3T3-L1 preadipocytes = assay: Seahorse XF cell metabolism analysis (extracellular acidification rate); assay type: cell-based, Mouse; conditions: 62.5 µM for 24 h
Procedure: Seahorse XF Cell Energy Phenotype Test Kit and Seahorse XF Cell Mito Stress Test Kit were used to measure oxygen consumption rate and extracellular acidification rate on a Seahorse Bioscience XF Analyzer (Agilent Technologies). 3T3-L1 preadipocytes were seeded at 7.5×10^3 per well in growth medium in XF 96 Cell Culture Microplate (Agilent Technologies) two days prior to assay. 24 h prior to the assay, medium was changed and compound 1 was added at concentration of 62.5 µM. The day of the assay, cells were washed once and media was replaced with XF Base Medium (pH 7.4) supplemented with 1 mM pyruvate, 2 mM glutamine and 10 mM glucose. The plate was placed in a 37 °C incubator without CO2 for one hour prior to the assay. Cells were washed a second time right before starting the experiment. After measuring basal oxygen consumption rate and extracellular acidification rate, oligomycin (1.0 µM) and FCCP (1.0 µM) were introduced in real time to measure oxygen consumption rate and extracellular acidification rate under stressed condition. For the baseline extracellular acidification rate the third out of the three baseline measurements was used, while for the stressed condition, the highest measurement after the injections was used. The metabolic potential is calculated as the percentage of stressed extracellular acidification rate to baseline extracellular acidification rate.

[2] = High fat diet-induced obesity mouse model (weight gain, abdominal fat, spleen weight, overall toxicity); assay type: in vivo; conditions: high fat diet mice
Procedure: (§1) All procedures were conducted in compliance with protocols approved by the Animal Care Committee of the University of Crete, School of Medicine (Facility number EL91-BIOexp-06), in conjunction with the Veterinary Department of the Region of Crete, Heraklion, Crete, Greece. C57BL/6 adult male mice were maintained in a 12 h day/night cycle and 21-23 °C conditions. Mice were provided with water and either normal fat diet, or high fat diet (60% energy from fat) ad libitum. All mice were weighed every 48 h.
(§2) Neorogioldiol was first dissolved in 90% carbowaxTM 400, 10% (v/v) absolute ethanol solution and then diluted 1:10 in water for injection. A dose of 0.25 mg neorogioldiol in a total volume of 200 µl was administered intraperitoneally every 48 h in mice in high fat + neorogioldiol group starting from day 1. 4-5 mice were used per group and each experiment was performed twice.
(§3) Abdominal fat lobes were weighed, washed in PBS, minced and dissolved with collagenase. They were incubated in 1.5mg/ml collagenase in 1% PBS-BSA, for 30 min at 37 °C. Next, homogenate was centrifuged at 800 rpm for 5 min at room temperature. The upper fatty phase, which contains the adipocytes, was collected and resuspended in TRI Reagent® and RNA isolation was carried out according to the manufacturer's instructions. The cell pellet, which is the stromal vascular fraction, was washed once with PBS and resuspended in TRI Reagent® for RNA isolation.

[3] = Glucose tolerance test in high fat diet-fed mice; assay type: in vivo, C57BL/6 adult male mice
Procedure: as §1, §2
Mice were fasted for 16 h before receiving an intraperitoneal injection of 35% dextrose (100 µl / 35 gr). Blood glucose concentrations were measured in blood collected by venous bleeding from the tail vein immediately before the injections and after 30, 60 and 120 min.

[4] = test system: cytochrome P450 genes (Cyp1a1, Cyp2b10, Cyp3a11, Cyp3a25); assay: Quantitative PCR of cytochrome P450 genes in liver RNA extracts; assay type: in vivo, C57BL/6 adult male mice; conditions: 0.25 mg/mouse i.p. every 48 h for 35 days; vs high-fat diet mice
Procedure: (§4) Adipocytes and preadipocytes were harvested using the TRI Reagent®. RNA isolation was carried out according to the manufacturer's instructions. The purified RNA was quantified using the Nanodrop micro-volume spectrophotometer and 500 ng of each sample were used as a template for reverse transcription. cDNA synthesis was performed using the PrimeScriptTM RT reagent Kit (TaKaRa, RR037A) according to manufacturer's instructions. The cDNA produced by the above described procedure was diluted and used as a template for two-step quantitative PCR in a StepOnePlus™ Real-Time PCR System (Applied Biosystems™, 4376600) for a maximum of 40 cycles, as follows: start step 95 °C for 3 min, repeat steps: 95 °C for 15 s and 60 °C for 30 s. Amplification was performed using KAPA SYBR® FAST Universal qPCR kit (Kapa Biosystems, KK4618) according to manufacturer's instructions. Relative quantitative analysis was accomplished calculating fold-changes of gene expression as 2-(ΔΔCt), where ΔCt is (Ct (gene of interest) - Ct (housekeeping gene)). Ppib was used as internal control gene in 3T3L1 cells and in the fat fraction of mice abdominal fat, Rps9 was used as internal control gene in the stromal vascular fraction of mice abdominal fat and Actb was used as internal control gene in liver samples. Table 1. List of primers used for quantitative real-time PCR analysis.
as §1, §2

abdominal fat = assay: Quantitative PCR in fat fraction and stromal vascular fraction of abdominal fat; assay type: in vivo, C57BL/6 adult male mice
Procedure: as §4, §1, §2, §3

3T3-L1 cells [5] = assay: Quantitative PCR of relative mRNA expression in cell culture samples; assay type: cell-based, Mouse; conditions: mature adipocytes: differentiated 15 days, then 62.5 µM for 8 more days
[6] = reference [12]; cited from earlier work
[7] = intraperitoneal 0.25 mg/mouse every 48 h for 35 days, vs high fat diet without neorogioldiol
[8] = high fat diet + neorogioldiol vs high fat diet mice
[9] = high fat diet + neorogioldiol vs untreated obese mice

With neorogioldiol the “concentrations that did not exhibit cytotoxicity” value (3T3-L1 cells [1]; concentration chosen for further analyses) was 62.5 µM, the “concentration with cytostatic effects” value (3T3-L1 cells [1]; three-day incubation (24, 48, 72 h), compound 1: after the first 24 h of treatment) was 62.5 µM and the “basal levels of extracellular acidification rate” value (3T3-L1 preadipocytes) was “increasing basal levels”. For the same substance, the “metabolic potential (stressed to baseline extracellular acidification rate)” value (3T3-L1 preadipocytes; after oligomycin and FCCP) was “decreased the metabolic potential”, the “toxicity in vivo (overall)” value ([2]; 0.25 mg/mouse i.p. every 48 h for 35 days) was “did not exhibit any toxicity in vivo” and the abdominal fat mass [2, 7] was “reduced abdominal fat mass”. For the same substance, the weight gain [2, 7] was “suppressed weight gain”, the “glucose intolerance (glucose tolerance test)” value ([3]; day 16, 0.25 mg/mouse i.p. every 48 h) was “had not developed glucose intolerance” and the “glucose intolerance (glucose tolerance test)” value ([3]; day 34, 0.25 mg/mouse i.p. every 48 h) was “became glucose intolerant”. The “Cyp1a1 expression in liver RNA extracts” value [4] was “no difference”, the “Cyp2b10 expression in liver RNA extracts” value [4] was “no difference” and the “Cyp3a11 expression in liver RNA extracts” value [4] was “no difference”. The “Cyp3a25 expression in liver RNA extracts” value [4] was “no difference”, the “Arg1 expression in the stromal vascular fraction” value (abdominal fat; [8]) was “downregulated” and the “Il10 expression in the stromal vascular fraction” value (abdominal fat; [8]) was “downregulated”. For the same substance, the “Adipoq expression in the fat fraction of abdominal fat” value (abdominal fat; [9]) was “lower levels”, the “Lep expression in the fat fraction of abdominal fat” value (abdominal fat; [9]) was “lower levels” and the Dlkl expression (3T3-L1 cells [5]) was “did not affect the expression”. The Lep expression (3T3-L1 cells [5]) was “decreased the expression”, the Slc2a4 expression (3T3-L1 cells [5]) was “decreased the expression” and the anti-inflammatory activity [6] was “potent anti-inflammatory activity”.
